Source: publication PMC9436075, “A structural basis for the functional differences between the cytosolic and plastid phosphoglucose isomerase isozymes” (PLoS ONE, 2022)

What was measured:
[1] = target: T1, TaPGIp (Triticum aestivum, UniProt A0A3B6LNA8); assay: PGI activity inhibition, dose-response; format: biochemical; conditions: read-out: IC50E4P
T1 construct: gene LOC123112261; plastid PGI, CTD 467-557, transit peptide probably removed; homodimer
T1 sequence (A0A3B6LNA8 64-620): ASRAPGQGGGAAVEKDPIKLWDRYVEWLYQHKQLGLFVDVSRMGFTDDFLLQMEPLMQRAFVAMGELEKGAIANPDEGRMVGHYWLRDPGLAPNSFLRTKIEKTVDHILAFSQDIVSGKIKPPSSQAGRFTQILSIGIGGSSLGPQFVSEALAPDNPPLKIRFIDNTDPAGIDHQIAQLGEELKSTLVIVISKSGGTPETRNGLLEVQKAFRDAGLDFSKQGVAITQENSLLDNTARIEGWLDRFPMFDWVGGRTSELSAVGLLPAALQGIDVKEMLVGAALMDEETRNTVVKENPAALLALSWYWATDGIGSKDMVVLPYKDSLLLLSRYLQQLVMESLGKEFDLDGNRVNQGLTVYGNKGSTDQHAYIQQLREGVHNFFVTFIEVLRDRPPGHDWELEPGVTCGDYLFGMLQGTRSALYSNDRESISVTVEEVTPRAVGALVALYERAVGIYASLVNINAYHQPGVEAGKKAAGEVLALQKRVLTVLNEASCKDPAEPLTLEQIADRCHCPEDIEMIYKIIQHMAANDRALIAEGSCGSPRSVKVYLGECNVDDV

[2] = target: T2, TaPGIc (Triticum aestivum, UniProt Q1PBI3); assay: PGI activity inhibition, dose-response; format: biochemical; conditions: read-out: IC50E4P
T2 construct: gene GPI; cytosolic PGI, CTD 510-567, HLHM 444-466; homodimer
T2 sequence (Q1PBI3 1-567): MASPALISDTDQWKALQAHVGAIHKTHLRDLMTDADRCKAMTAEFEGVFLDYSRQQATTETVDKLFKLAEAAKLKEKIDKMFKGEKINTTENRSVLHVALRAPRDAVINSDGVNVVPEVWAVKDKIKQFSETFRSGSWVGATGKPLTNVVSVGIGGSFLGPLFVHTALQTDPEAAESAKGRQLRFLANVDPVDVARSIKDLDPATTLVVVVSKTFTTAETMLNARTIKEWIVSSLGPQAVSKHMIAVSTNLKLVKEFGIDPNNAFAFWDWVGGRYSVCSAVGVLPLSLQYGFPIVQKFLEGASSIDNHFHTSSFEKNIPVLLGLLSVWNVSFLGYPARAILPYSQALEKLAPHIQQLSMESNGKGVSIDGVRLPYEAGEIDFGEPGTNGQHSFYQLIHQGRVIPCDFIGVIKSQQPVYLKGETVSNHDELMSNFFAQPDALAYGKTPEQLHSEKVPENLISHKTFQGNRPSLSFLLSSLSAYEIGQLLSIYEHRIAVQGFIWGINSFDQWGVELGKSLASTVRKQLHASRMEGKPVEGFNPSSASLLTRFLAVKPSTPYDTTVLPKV

## O=C[C@H](O)[C@H](O)COP(=O)(O)O [E4P, erythrose 4-phosphate]
[1]
  IC50: 760 µM
[2]
  IC50: 130 µM
